According to US11168052B2, “Carbamate derivative compounds, processes for preparing them and their uses” (BIO-PHARM SOLUTIONS CO., LTD., priority 2016, dated 2021):

Columns and labels:
[1] = tested on: MES (electroshock) seizure in mice; assay: Anti-epilepsy activity, MES test in mouse; format: in vivo, ICR mice; settings: po
Protocol: (§1) In the MES test (Ref., G. Villetti et al. Neuropharmacology 40(2001) 866-878), an electrical stimulus (mice: 50 mA, 60 Hz, 0.2 sec, and rats: 150 mA, 60 Hz, 0.2 sec in the test animal) supplied by an 11A Shocker (IITC Life Science Company) was delivered through corneal electrodes. All mice or rats assigned to any electroshock at peak time were treated with each test compound sample which was dissolved in 20% tween 80 prepared by saline solvent applied orally before the test. […] Three doses of the test sample were administered orally to 9-18 animals (3-6 mice per dose) for evaluating the respective doses at which 50% of the animals were protected from seizure (ED50). The ED50 value (median effective dose) was calculated by Litchfield and Wicoxon log-probit method which is a dose-response relationship. Experimental animals, male ICR mice and male SD rats, were purchased from OrientBio, Samtako, or Nara Biotech, Korea, and housed in cages (4-5 mice or 3 rats per cage) for 4-5 days. The range of mice body weight was between 19 and 25 grams and range of rats body weight was between 100 and 130 grams.

corneally kindled rats = assay: Corneal kindling (CK) rat model; format: in vivo, Sprague-Dawley rats; settings: po
From the text: Male Sprague-Dawley rats (purchased from Orient Bio Inc. Korea) of body weight 85-100 g were used for these studies. The MES test using the electroshock seizure apparatus designed by Rodent Shocker Type221 (Hugo Sachs Elektronik, Germany). The kindled rat models were electrically stimulated (8 mA, 60 Hz, 2 s, corneal electrodes) twice daily for 21 days until stage 5 seizure scored by Racine's scale (Racine, 1972) were evoked. The kindled rats were fasted and adapted to test condition, for at least 1 hour before the administration of test material. The drugs were administered orally (p.o.) in a volume of 4 μl/g body weight. The corneally kindled rat model test is a model for generalized […] seizures or bipolar disorder and identifies the compound which prevents seizure or bipolar disorder spread. The shock level was set at 8 mA, 60 Hz and the duration was set at 2 s. A drop of 0.9% saline was placed in each eye, the electrodes were placed over the eyes, and the shock was administered immediately. Pharmacological effects of the test materials were evaluated to compare the test groups (n=6) with a control group (n=6). Control group was administrated vehicle, only. The peak time was determined by administration test material's random dose for 0.5, 1, 2, 4 hour. The time that the most protect was defined peak time and ED50 was determined by other dose administration at peak time. […]

[2] = tested on: CFA-induced pain model in rats; assay: Antiallodynic activity on Complete Freund's Adjuvant (CFA)-induced inflammatory pain model; format: in vivo, Sprague-Dawley rats; settings: Rattus norvegicus, ip, 50 mg/kg intraperitoneally, von Frey threshold relative to sham, 0.5 hr after administration, read-out: Efficacy of 50 mg/kg(%)
Protocol: Male, Sprague-Dawley rats (210-250 g, Nara Bio, Korea) were habituated for 1 week before surgery and allowed free access to food and water throughout the experimentation. Room temperature and humidity were maintained at 24±2 and 50±10%, respectively.
CFA-induced inflammatory pain was induced by the procedure of Nagakura et al. (2003) and Gregory P. et al. (2010) with minor modifications. CFA (sigma, USA) was injected in the right plantar with a 100 ul volume under gaseous anesthesia with isoflurane. Sham controls were injected with 100 ul of saline, and preparation of the vehicle controls were identical to the group treated with compound, except for administration of vehicles without indentical to the vihecle control group.
Tactile sensitivity (Mechanical allodynia) was evaluated using von Frey monofilaments before and after treatment, and animals were include in the study only if the withdrawal threshold value was less than 4 g. One week after CFA injection, CFA-infused animals, sham-operated animal, and vehicle-operated animals were tested for tactile sensitivity with von Frey monofilaments, with 3 trials for each animal. All Animals were placed in a stainless steel mashe chamber and habituated for 30 min in the test cage. The tactile sensitivity for ipsilateral hind paw was measured using the up-and-down method (Dixon, 1980) with seven von Frey monofilaments (0.4, 1, 2, 4, 6, 8, and 15 g) to 3 trials. The tactile sensitivity test was followed by Dixon's method (Dixon, 1980). The 50% paw withdrawal threshold for each paw was calculated using the following formula: [Xth]log=[vFr]log+ky where [vFr] is the force of the last von Frey used, k=0.2249 which is the average interval (in log units) between the von Frey monofilaments, and y is a value that depends upon the pattern of withdrawal responses (Dixon, 1980).
Antiallodynic effect of compounds was evaluated at the dose of 50 mg/kg (n=4-6), intraperitoneally administrated in a volume of 5 ul/g bw in a vehicle of 30% (v/v) PEG or 20% (v/v) Tween 80. The test was performed peak time of efficacy (0.5 hr) after compound administration.
The relative values compared to the sham (% control) were calculated and shown in Table 5, which show an antiallodynic effect of Compound 1 on CFA-induced pain model in rats.

[3] = tested on: MES (electroshock) seizure in rats; assay: Anti-epilepsy activity, MES test in rats; format: in vivo, SD rats; settings: Rattus norvegicus, po
Protocol: as §1

[4] = tested on: PTZ (Pentylenetetrazol)-induced clonic seizure in mice; assay: Anti-epilepsy activity, scPTZ test in mouse; format: in vivo, ICR mice; settings: ip
From the text: (§2) In this experiment, each test compound sample was formulated as described in Biological Experimental Example 1, and administered intraperitoneally to the test animals (mice; ICR or Rat; SD); Experimental animals, male ICR mice and male SD rats, were purchased from OrientBio or Nara biotech, Korea, and housed 4-5 mice per a cage for 4-5 days. The range of mice body weight was used between 19 and 26 grams and range of rats body weight was used between 100 and 130 grams. After Peak time (0.5, 1, 2 and 4 hr) from the administration, PTZ (Pentylenetetrazol) was administered subcutaneously in the concentration capable of inducing 97% intermittent convulsions (mice: 100-110 mg/kg?bw, 10 μl/g, or rats: 90-110 mg/kg?bw, 2 μl/g). If clonic seizure was not observed for at least 30 minutes in the PTZ administered animal, it can be considered that the test compound has anti-epilepsy activity. The median effective dose (ED50) is determined using 6 animals per a concentration (total three different concentrations), and calculated by Litchfield and Wicoxon log-probit method which is a dose-response relationship.

[5] = tested on: PTZ (Pentylenetetrazol)-induced clonic seizure in rats; assay: Anti-epilepsy activity, scPTZ test in rats; format: in vivo, SD rats
From the text: as §2

[6] = tested on: Lithium-pilocarpine induced seizure in rats; assay: Lithium-pilocarpine induced epilepsy test (LI-PILO), prevention test; format: in vivo, Sprague-Dawley rats; settings: Rattus norvegicus, ip, prevention, read-out: Lithium pilocarpine model (pre) ED50
Protocol: Male Sprague-Dawley rats (purchased from Orient Bio Inc. Korea) of body weight 175 grams were used for these studies and 3 rats per cage were housed for 4-5 days. On the day prior to SE, rats received 127 mg/kg lithium chloride (Sigma, St. Louis, Mo., U.S.A.) intraperitoneally (i.p.). Approximately 18-20 h following this treatment, rats were given an i.p. injection of the concentration capable of inducing 97% intermittent convulsions pilocarpine(Sigma, 30-43 mg/kg). An i.p. injection of 2 mg/kg methyl-scopolamine (Sigma) was administered 30 min prior to pilocarpine to block the effects of the muscarinic agonist on peripheral cholinergic receptors. Test drugs were dissolved in 20% tween80 (Sigma).
The drugs were administered intraperitoneally (i.p.) in a volume of 2 μl/g body weight. Pharmacological effects of all of the test materials were evaluated to compare test groups (n=6) with a control group (n=6). Control group was administered vehicle only. The efficacy was measured 0.5, 1, 2, or 4 hours after the administration of the test material. The time point that the most animals were protected was defined as peak time and the ED50 was determined at peak time. The animals were then transferred to observation cages and observed continuously for 90 min Seizure was elicited in approximately 95% of the control group. Protection was defined as complete absence of seizure grade 3-5 (Racine scale; Racine, 1972) over the 90-min observation period. The effective dose of the compound necessary to protect 50% of the animals against seizures compared to controls (i.e., ED50) was determined by a curve fitting program (Excel 2007, Microsoft).

[7] = tested on: Picrotoxin (PIC)-induced clonic seizure in mice; assay: Chemical induced seizure model (PIC); format: in vivo, ICR mice; settings: mice, dose 50 mg/kg
Protocol: Picrotoxin (PIC) were used to induce the behavioral seizures in the experiments. Male ICR mice (purchased from Orient Bio Inc. Korea) of body weight 19-26 g (mice) were used for these studies. The test materials were administered intraperitoneal (ip) route in a volume of 10 ul/g (mice) weight in rats or mice, respectively. Pharmacological effects of the test materials were evaluated to compared test groups (n=6) with a control group (n=6). Control group was administrated vehicle, only. The peak time was determined by administration of test material's random dose for 0.5, 1, 2, 4 hour. The time that the most protect was defined as a peak time and ED50 was determined by other dose administration at the peak time. Chemical (PIC) was dissolved in 0.9% saline and administered subcutaneously (s.c.) at its CD97 (convulsive dose 97%), the dose of Chemical (PIC) that produced clonic seizures in 97% into a loose fold of skin in the midline of the neck in a volume of 10 ul/g (mice) body weight. The animals were then transferred to observation cages and observed continuously for 45 min. Clonic seizure was elicited in approximately 97% of control group. Protection was defined as a complete absence of clonic seizure over the 45-min observation period. The effective dose of compound necessary to protect against generalized convulsive seizures to 50% of controls (i.e., ED50) was determined by log probit analysis using SPSS software program (SPSS Inc.). (Reference; White H. S., J. H. Woodhead, K. S. Wilcox, J. P. Stables, H. J. Kupferberg, and H. H. Wolf. General Principles; Discovery and Preclinical Development of Antiepileptic Drugs. In: R. H. Levy, R. H. Mattson, B. S. Meldrum, and E. Perucca, eds. Antiepileptic Drugs, 5th Ed. Lippincott Williams & Wilkins, Philadelphia 2002: pp. 36-48.) The obtained results are shown in following Table 10.

ICR mice on hot plate = assay: Hot-plate test; format: in vivo; settings: Mus musculus, po, orally, withdrawal latency
Protocol: To examine the pain relief effect of the carbamate compounds, a hot-plate test was conducted in referring to Current Protocols in Neuroscience; Behavioral Neuroscience Unit 8.9.
(§3) ICR mice (male, 25-28 g; Orient Bio, Korea) were habituated before test (in test room) for 1 hour. Animals were fasted 2 hr before administration of compounds. Compounds were orally administered at the three dose, 10 ul/g, by bodyweight (n=4-6/group). All compounds were dissolved in a vehicle of 30% (v/v) PEG 400 or 20% (v/v) Tween 80. The control group was treated the vehicle without compounds.
0.25-2.0 hr after the administration of compounds, the mice were put on a hot plate pre-heated to 55±1 (Hu, X. et al, 2008), and then, the withdrawal latency time was measured (cut-off time: 30 sec) until the point when each mouse was taking a paw off from the plate, shaking, licking a paw or hind leg, or jumping from the plate.

[8] = tested on: ICR mice, tail-flick analgesia meter; assay: Tail-flick test; format: in vivo; settings: orally, withdrawal latency
Protocol: To examine the pain relief effect of the carbamate compounds, a tail-flick test was conducted, referring to Current Protocols in Neuroscience; Behavioral Neuroscience Unit 8.9.
as §3, with “25-30g;” for “25-28 g;”, “Each of Compound was” for “Compounds were”, “1-3” for “three”
After the administration of compounds, the mice tail were put on a tail-flick analgesia meter. To avoid tissue damage, maximal exposure time to pain stimuli was restricted to 15 s. The withdrawal latency was measured to the time to the point when each mouse responded. The relative values compared to the control (% control) were calculated.
The relative values compared to the sham were calculated and shown in Table 7, which show effect of the compound of examples on tail-flick test in Mice.

Structure (SMILES)	ED50 [1] [mg/kg]	ED50 (corneally kindled rats) [mg/kg]	response vs control in vivo at 50 mg/kg [2] [%]	ED50 [3] [mg/kg]	ED50 [4] [mg/kg]	ED50 ([5]; Rattus norvegicus, ip) [mg/kg]	ED50 [6] [mg/kg]	PIC(ip) efficacy % [7]	ED50 (ICR mice on hot plate) [mg/kg]	Tail-flick test Dose [8] [mg/kg]	scPTZ test (ip) efficacy % ([5]; dose 100 mg/kg)
NC(=O)O[C@@H]1Cc2cc(Cl)cc(Cl)c2[C@@H]1O [Example 59, (1S, 2R)-5,7-dichloro-1-hydroxy-2,3-dihydro-1H-inden-2-yl carbamate]	56.5	21.4	–	–	–	–	–	–	–	–	–
NC(=O)O[C@H]1CCc2cccc(Cl)c2[C@H]1O [Example 2, (1R, 2S)-8-chloro-1-hydroxy-1,2,3,4-tetrahydronaphthalen-2-yl carbamate]	41	–	23.2	11.6	26.6	39.7	50	50 (66.6%)	–	–	–
NC(=O)O[C@H]1Cc2cccc(Cl)c2[C@H]1O [Example 52, (1R, 2S)-7-chloro-1-hydroxy-2,3-dihydro-1H-inden-2-yl carbamate]	24.3	–	34.7	10.9	–	–	63	–	119	>200	100 (33.3%,
